According to patent US20190048016A1, “SUBSTITUTED BRIDGED UREA ANALOGS AS SIRTUIN MODULATORS” (GlaxoSmithKline Intellectual Property(No.2)Limited, priority 2014, published 2019):

Biological target: T1, SIRT1 (Homo sapiens, UniProt Q96EB6)
T1 sequence (Q96EB6 1-747): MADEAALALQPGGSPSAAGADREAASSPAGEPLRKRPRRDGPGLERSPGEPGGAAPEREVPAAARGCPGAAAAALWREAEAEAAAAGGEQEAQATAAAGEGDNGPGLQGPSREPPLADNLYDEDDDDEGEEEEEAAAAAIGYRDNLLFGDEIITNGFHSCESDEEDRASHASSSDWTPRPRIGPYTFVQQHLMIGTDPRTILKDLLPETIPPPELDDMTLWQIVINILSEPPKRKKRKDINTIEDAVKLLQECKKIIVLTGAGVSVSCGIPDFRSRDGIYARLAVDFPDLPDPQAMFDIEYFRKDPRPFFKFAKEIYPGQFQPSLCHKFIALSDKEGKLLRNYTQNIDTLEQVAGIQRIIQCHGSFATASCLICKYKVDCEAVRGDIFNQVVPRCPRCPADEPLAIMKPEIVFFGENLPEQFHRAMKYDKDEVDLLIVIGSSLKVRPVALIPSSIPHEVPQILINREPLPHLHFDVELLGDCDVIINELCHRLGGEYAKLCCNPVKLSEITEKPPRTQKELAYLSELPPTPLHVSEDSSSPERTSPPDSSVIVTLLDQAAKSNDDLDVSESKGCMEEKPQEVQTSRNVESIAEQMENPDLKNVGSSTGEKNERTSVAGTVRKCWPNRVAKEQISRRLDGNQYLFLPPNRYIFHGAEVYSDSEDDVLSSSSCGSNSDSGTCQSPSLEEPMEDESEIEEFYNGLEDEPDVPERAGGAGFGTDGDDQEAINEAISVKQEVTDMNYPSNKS
Test: Trp mass spectrometry assay of SIRT1 activation (deacetylation of Ac-R-H-K-K(Ac)-W-NH2 peptide, OAADPR formation)
Assay type: biochemical
Conditions: Trp peptide 0.5 μM, 120 μM βNAD+, 10 nM SIRT1, 25 min, 25° C.; for Emax: 25 min, read-out: TRP MAX RESP (percent maximum fold activation relative to control = 100%)
Outline: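 10 nM His-tagged SIRT1 (E. coli expressed) with 0.5 μM Ac-RHKK(Ac)W-NH2 and 120 μM βNAD+, 25 min at 25° C, HEPES pH 7.5, […]; formic acid stop. OAADPR or deacetylated peptide measured by mass spectrometry; EC1.5 = concentration giving 150% activity versus DMSO control; maximum activation also reported.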

| SMILES | Emax [%] | TRP Activity (EC1.5, concentration of compound required to increase SIRT1 activity by 50% over control) |
| --- | --- | --- |
| O=C(Nc1nccc(OC[C@@H](O)CO)n1)N1c2nc(-c3cccc(C(F)(F)F)c3)c(Cl)cc2N2CCC[C@H]1C2 [Example 75] | ≥ 150 | A (EC1.5<1 μM) |
| Cc1cc(-c2ccc3c(n2)N(C(=O)Nc2cnn(C)c2)[C@H]2CCCN3C2)ccn1 [Example 26, (9S)-N-(1-methyl-1H-pyrazol-4-yl)-2-(2-methylpyridin-4-yl)-8,9-dihydro-6H-5,9-methanopyrido[2,3-b][1,4]diazocine-10(7H)-carboxamide] | ≥ 150 | B (EC1.5 1-25 μM) |
| Cc1cc(-c2cc(C)c3c(n2)N(C(=O)Nc2cccnc2)[C@H]2CCCN3C2)ccn1 [Example 90, (9S)-4-methyl-2-(2-methylpyridin-4-yl)-N-(pyridin-3-yl)-8,9-dihydro-6H-5,9-methanopyrido[2,3-b][1,4]diazocine-10(7H)-carboxamide] | ≥ 150 | A (EC1.5<1 μM) |
| C[C@@H](NC(=O)c1ccc2c(n1)N(C(=O)Nc1ccc(OC[C@@H](O)CO)cn1)[C@H]1CCCN2C1)C(F)(F)F [Example 54, (9S)-N10-(5-((S)-2,3-dihydroxypropoxy)pyridin-2-yl)-N2-((R)-1,1,1-trifluoropropan-2-yl)-8,9-dihydro-6H-5,9-methanopyrido[2,3-b][1,4]diazocine-2,10(7H)-dicarboxamide] | ≥ 150 | A (EC1.5<1 μM) |
| Cc1cc(-c2ccc3c(n2)N(C(=O)Nc2cncc(F)c2)[C@H]2CCCN3C2)ccn1 [Example 5, (9S)-N-(5-fluoropyridin-3-yl)-2-(2-methylpyridin-4-yl)-8,9-dihydro-6H-5,9-methanopyrido[2,3-b][1,4]diazocine-10(7H)-carboxamide] | ≥ 150 | A (EC1.5<1 μM) |
| Cc1cc(-c2ccc3c(n2)N(C(=O)Nc2ccc4nn(C)cc4c2)[C@H]2CCCN3C2)ccn1 [Example 15, (9S)-N-(2-methyl-2H-indazol-5-yl)-2-(2-methylpyridin-4-yl)-8,9-dihydro-6H-5,9-methanopyrido[2,3-b][1,4]diazocine-10(7H)-carboxamide] | ≥ 150 | A (EC1.5<1 μM) |
| O=C(Nc1ncc(OC[C@@H](O)CO)cn1)N1c2nc(-c3cccc(C(F)(F)F)c3)c(Cl)cc2N2CCC[C@H]1C2 [Example 92, (9S)-3-chloro-N-(5-((S)-2,3-dihydroxypropoxy)pyrimidin-2-yl)-2-(3-(trifluoromethyl)phenyl)-8,9-dihydro-6H-5,9-methanopyrido[2,3-b][1,4]diazocine-10(7H)-carboxamide] | ≥ 150 | A (EC1.5<1 μM) |
| O=C(Nc1ncccn1)N1c2nc(N3CCCC(C(F)(F)F)C3)ccc2N2CCC[C@H]1C2 (single isomer, unassigned) [Example 22] | – | A (EC1.5<1 μM) |
| O=C(Nc1cc(OC[C@@H](O)CO)ncn1)N1c2nc(-c3cccc(C(F)(F)F)c3)c(Cl)cc2N2CCC[C@H]1C2 [Example 86] | ≥ 150 | A (EC1.5<1 μM) |
| O=C(Nc1ccccn1)N1c2nc(N3CCC(C(F)(F)F)C3)ccc2N2CCC[C@H]1C2 (single isomer, unassigned) [Example 8] | ≥ 150 | B (EC1.5 1-25 μM) |
| O=C(Nc1ccccn1)N1c2nc(-c3cccc(C(F)(F)F)c3)c(Cl)cc2N2CCC[C@H]1C2 [Example 63, (9S)-3-chloro-N-(pyridin-2-yl)-2-(3-(trifluoromethyl)phenyl)-8,9-dihydro-6H-5,9-methanopyrido[2,3-b][1,4]diazocine-10(7H)-carboxamide] | ≥ 150 | A (EC1.5<1 μM) |
